{"source": "patent US20240315985A1", "about": "(Dermavant Sciences GmbH, priority 2021, published 2024)", "key": {"[1]": {"test_system": "plaque psoriasis in adults", "assay": "Physician Global Assessment (PGA), long-term open-label extension study (PSOARING 3) of tapinarof cream, 1%", "format": "in vivo, human", "excerpt": "This extension study consisted of up to 40 weeks of treatment and a 4 week, safety follow up period.\nThe PGA was used to assess the primary efficacy endpoint in this study. The PGA is a clinical tool for assessing the current state/severity of a subject's psoriasis at a given time point. It is a static, 5 point, morphological assessment of overall disease severity, as determined by the Investigator, using the clinical characteristics of erythema, scaling, and plaque thickness/elevation as guidelines; higher PGA scores represent more severe disease (0=clear, 1=almost clear, 2=mild, 3=moderate, and 4=severe). The BSA affected was not considered in scoring of the PGA. Variations of the PGA are frequently used in clinical studies because it is a simple assessment, similar to those used in clinical practice. The PGA was performed first, prior to the % BSA, PASI, and LTS assessments.\nTime to event parameters, such as the time from treatment success to subsequent worsening (PGA≥2) or duration of treatment episode, were summarized by the Kaplan Meier product limit method using OC."}, "[2]": {"assay": "Plasma concentrations, maximal use study with serial PK sampling", "format": "in vivo, human", "conditions": "between Days 1 and 29", "excerpt": "This unique PK profile is characterized by the highest plasma concentrations being observed on the first day or week of the treatment period followed by a subsequent decline to undetectable or near undetectable levels in the plasma after multiple weeks of dosing.\n(FIG. 2). This decline is further supported by serial PK data collected from previous clinical studies over 28 days of dosing and over 21 days of dosing."}, "[3]": {"assay": "Preclinical repeat dosing study, systemic exposure", "format": "in vivo", "conditions": "CYP1A1/2 induced in skin or liver", "excerpt": "The reason for the decrease in plasma concentrations over time is unknown. Without wishing to be bound by theory, as the skin heals, there may be less penetration of the drug through the stratum corneum and into the systemic circulation since the barrier is restored."}, "[4]": {"test_system": "plaque psoriasis in adults", "assay": "Safety: adverse events (AEs, TEAEs, AESIs, SAEs), extension study", "format": "in vivo, human", "excerpt": "Endpoints: Incidence, frequency, and nature of AEs, adverse events of special interest (AESIs), and serious adverse events (SAEs), Change over time in clinical laboratory tests and frequency of clinically significant abnormal test results, Change over time in vital signs and frequency of clinically significant abnormal results, Local Tolerability Scale (LTS) scores by severity summarized by visit.\nSafety assessments included AEs, AESIs, SAEs, local (application site) tolerability, clinical laboratory tests, vital signs, physical examinations, and Investigator assessed LTS. Efficacy assessments included a 5 point static PGA (0 [clear], 1 [almost clear], 2 [mild], 3 [moderate], 4 [severe]), % BSA affected, the PASI, and subject reported DLQI."}, "psoriasis": {"test_system": "psoriasis", "assay": "12-week phase 2b trial in psoriasis, maintenance after treatment cessation", "format": "in vivo, human", "excerpt": "As mentioned, tapinarof is a novel therapeutic aryl hydrocarbon receptor modulating agent (TAMA) in clinical development for the topical treatment of psoriasis and atopic dermatitis. […] AhR modulates T cell responses both through intrinsic control of T cell subset differentiation and via controlling the function of antigen presenting cells. In addition, AhR signaling promotes the conversion of Th17 cells to type 1 regulatory T cells. Aberrant immune responses underpin the pathogenesis of both PsO and AD, and the wide expression of AhR in immune cells makes it an attractive target given the essential role of AhR in regulating inflammatory responses and skin homeostasis. […] These clinical data support the role of AhR in skin immune homeostasis. Given the multitude of AhR-dependent immunoregulatory mechanisms, AhR is an attractive target for novel immunotherapies with the potential to extend therapeutic efficacy following treatment discontinuation; this may provide a unique clinical benefit to patients."}}, "data": [{"smiles": "CC(C)c1c(O)cc(/C=C/c2ccccc2)cc1O", "note": "[tapinarof, 3,5-Dihydroxy-4-isopropyl-trans-stilbene]", "values": [{"measurement": "Durability of Response, No. of Subjects", "setting": "[1]; Vehicle→Tapinarof, Wk. 0", "value": 22}, {"measurement": "Remittive effect off therapy", "setting": "[1]; patients with complete disease clearance (PGA=0)", "value": "approximately 4 months"}, {"measurement": "Decline in plasma concentrations of tapinarof", "setting": "[2]", "value": 10, "unit": "fold"}, {"measurement": "Change in systemic exposures with repeat dosing compared to single doses", "setting": "[3]; minipigs", "value": "no changes in systemic exposures"}, {"measurement": "Change in systemic exposures with repeat dosing compared to single doses", "setting": "[3]; rats", "value": "no changes in systemic exposures"}, {"measurement": "Study discontinuation due to AESI: Dermatitis contact, Patients, %", "setting": "[4]; Overall (n = 763)", "value": "(1.4) %"}, {"measurement": "Study discontinuation due to AESI: Folliculitis, Patients, %", "setting": "[4]; Overall (n = 763)", "value": "(1.2) %"}, {"measurement": "Study discontinuation due to TEAEs, Patients, %", "setting": "[4]; Overall (n = 763)", "value": "(5.4) %"}, {"measurement": "Treatment-emergent AESI: Dermatitis contact, Patients, %", "setting": "[4]; Overall (n = 763)", "value": "(5.9) %"}, {"measurement": "Treatment-emergent AESI: Folliculitis, Patients, %", "setting": "[4]; Overall (n = 763)", "value": "(24.0) %"}, {"measurement": "Treatment-emergent AESI: Headache, Patients, %", "setting": "[4]; Overall (n = 763)", "value": "(2.0) %"}, {"measurement": "Study discontinuation due to AESI: Dermatitis contact, Patients, %", "setting": "[4]; Tapinarof→Tapinarof (n = 508)", "value": "(1.4) %"}, {"measurement": "Study discontinuation due to AESI: Folliculitis, Patients, %", "setting": "[4]; Tapinarof→Tapinarof (n = 508)", "value": "(1.2) %"}, {"measurement": "Study discontinuation due to TEAEs, Patients, %", "setting": "[4]; Tapinarof→Tapinarof (n = 508)", "value": "(5.1) %"}, {"measurement": "Treatment-emergent AESI: Dermatitis contact, Patients, %", "setting": "[4]; Tapinarof→Tapinarof (n = 508)", "value": "(4.7) %"}, {"measurement": "Treatment-emergent AESI: Folliculitis, Patients, %", "setting": "[4]; Tapinarof→Tapinarof (n = 508)", "value": "(24.4) %"}, {"measurement": "Treatment-emergent AESI: Headache, Patients, %", "setting": "[4]; Tapinarof→Tapinarof (n = 508)", "value": "(2.0) %"}, {"measurement": "Study discontinuation due to AESI: Dermatitis contact, Patients, %", "setting": "[4]; Vehicle→Tapinarof (n = 255)", "value": "(1.6) %"}, {"measurement": "Study discontinuation due to AESI: Folliculitis, Patients, %", "setting": "[4]; Vehicle→Tapinarof (n = 255)", "value": "(1.2) %"}, {"measurement": "Study discontinuation due to TEAEs, Patients, %", "setting": "[4]; Vehicle→Tapinarof (n = 255)", "value": "(5.9) %"}, {"measurement": "Treatment-emergent AESI: Dermatitis contact, Patients, %", "setting": "[4]; Vehicle→Tapinarof (n = 255)", "value": "(8.2) %"}, {"measurement": "Treatment-emergent AESI: Folliculitis, Patients, %", "setting": "[4]; Vehicle→Tapinarof (n = 255)", "value": "(23.1) %"}, {"measurement": "Treatment-emergent AESI: Headache, Patients, %", "setting": "[4]; Vehicle→Tapinarof (n = 255)", "value": "(2.0) %"}, {"measurement": "Time efficacy was maintained after treatment cessation", "setting": "psoriasis", "value": "four"}]}]}
